According to paper PMC2829272 (Biochemical pharmacology, 2008):

Molecular target: T1, CYP26A1 (Homo sapiens, UniProt O43174)
T1 sequence (O43174 1-497): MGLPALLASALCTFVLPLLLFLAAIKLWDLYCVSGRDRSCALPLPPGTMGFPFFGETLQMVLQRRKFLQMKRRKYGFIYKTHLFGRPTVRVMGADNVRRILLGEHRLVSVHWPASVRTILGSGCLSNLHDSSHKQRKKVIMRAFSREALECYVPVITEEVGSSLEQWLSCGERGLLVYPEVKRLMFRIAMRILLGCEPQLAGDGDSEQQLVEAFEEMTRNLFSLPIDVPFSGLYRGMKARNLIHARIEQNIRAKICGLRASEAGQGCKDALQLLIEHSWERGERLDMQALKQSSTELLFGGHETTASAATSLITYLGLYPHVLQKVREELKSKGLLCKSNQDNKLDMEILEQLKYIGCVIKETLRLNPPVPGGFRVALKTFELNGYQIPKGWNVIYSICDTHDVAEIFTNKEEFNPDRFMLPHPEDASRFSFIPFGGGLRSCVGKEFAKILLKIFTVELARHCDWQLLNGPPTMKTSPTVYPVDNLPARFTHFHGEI
Assay: spectral titration
Type: binding

CC1=C(/C=C/C(C)=C/C=C/C(C)=C/C(=O)O)C(C)(C)CCC1 [RA, all-trans-retinoic acid]
Kd: 0.529 µM
